In this test the test system is C170HM2 human colorectal tumor cells. The test can be described thus: C170HM2 colon cancer metastasis to the liver model. Type of test: in vivo, MF1 nude (nu/nu) athymic mice. The settings on record: 25 mg/kg i.v. cycled on days 1, 3, 5, 7. Here is the method: Liver metastasis was initiated by intraperitoneal injection of C170HM2 human colorectal tumor cells into male MF1 nude (nu/nu) athymic mice. 5FU/leucovorin was used as a positive control.
C170HM2 cells were maintained in vitro in RPMI culture medium (Sigma) containing 10% (v/v) heat inactivated fetal bovine serum and 2 mM L-glutamine at 37° C. in 5% CO2 and humidified conditions. Cells from sub-confluent monolayers were harvested with 0.025% EDTA, washed in culture medium and re-suspended in sterile phosphate buffered saline, pH 7.4 (PBS) for in vivo administration. 1.5×10^6 cells in a volume of 1 ml were injected intraperitoneally into 65 mice, and the mice were allocated into treatment groups as below.
Group 1: n=10 Vehicle control Group 2: n=10 25 mg/kg 5FU/leucovorin i.v. cycled on days 1, 3, 5, 7 Group 3: n=10 5 mg/kg compound 1 (Dalteparin) s.c. once daily Group 4: n=10 5 mg/kg compound 2 (M402) s.c. once daily Group 5: n=10 15 mg/kg compound 2 s.c. once daily Group 6: n=10 30 mg/kg compound 2 s.c. once daily Group 7: n=5 Untreated
Treatment was initiated on day 1 following cell injection and continued until day 35 or until the clinical condition of the animal required termination. Groups 5 and 6 missed one dose on day 5. […]
The study was terminated on day 35, and the tumors in the liver were excised and weighed. The numbers of lung nodules are also counted.

The source of these data is patent US20120183976A1, “METHODS OF ASSESSING ACTIVITY OF A POLYSACCHARIDE COMPOSITION” (priority 2009, published 2012).

The substance 5FU/leucovorin gave a Mean tumor area (day 35) of 13.12 mm^2. Besides, the Mean tumor weight (liver tumors day 35) worked out at 0.037 g.
